What was measured:
Settings in all cases: exposure window: 6 hpf to 120 hpf, static, assay age: 120 hpf (5 dpf)
[1] = tested on: Danio rerio larvae (Tropical 5D); assay: mean angular velocity of exposed larvae, light phase (angular velocity (unit not stated)); higher = more movement
Method: (§1)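 Larval photomotor response in Tropical 5D wild-type zebrafish. Larvae were statically exposed to each chemical from 6 hpf to 5 dpf in 96-well plates; morphologically abnormal larvae were excluded. At 120 hpf, larvae were tracked with Ethovision XT (25 frames/s) over the 2nd cycle of 3 min light and 3 min dark. Values are the mean movement metric of exposed larvae per phase; same-plate control means (plate-dependent baseline) are given as conditions.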

[2] = tested on: Danio rerio larvae (Tropical 5D); assay: mean angular velocity of exposed larvae, dark phase (angular velocity (unit not stated)); higher = more movement
Method: as §1

[3] = tested on: Danio rerio larvae (Tropical 5D); assay: mean distance moved of exposed larvae, dark phase (µm per frame (1/25 s)); higher = more movement
Method: as §1

[4] = tested on: Danio rerio larvae (Tropical 5D); assay: mean distance moved of exposed larvae, light phase (µm per frame (1/25 s)); higher = more movement
Method: as §1

## CC[C@H](C)[C@H]1O[C@]2(C=C[C@@H]1C)C[C@@H]1C[C@@H](C/C=C(\C)[C@@H](O[C@H]3C[C@H](OC)[C@@H](O[C@H]4C[C@H](OC)[C@@H](O)[C@H](C)O4)[C@H](C)O3)[C@@H](C)/C=C/C=C3\CO[C@@H]4[C@H](O)C(C)=C[C@@H](C(=O)O1)[C@]34O)O2.CO[C@H]1C[C@H](O[C@H]2[C@H](C)O[C@@H](O[C@@H]3/C(C)=C/C[C@@H]4C[C@@H](C[C@]5(C=C[C@H](C)[C@@H](C(C)C)O5)O4)OC(=O)[C@@H]4C=C(C)[C@@H](O)[C@H]5OC/C(=C\C=C\[C@@H]3C)[C@]54O)C[C@@H]2OC)O[C@@H](C)[C@@H]1O [Abamectin]
[1]; 0.1 µM
  mean angular velocity of exposed larvae: 0.111
[1]; 0.2 µM
  mean angular velocity of exposed larvae: 0.19
[1]; 0.4 µM
  mean angular velocity of exposed larvae: 0.173
[1]; 0.5 µM
  mean angular velocity of exposed larvae: 0.0668
[1]; 0.6 µM
  mean angular velocity of exposed larvae: 0.0447
[1]; 0.8 µM
  mean angular velocity of exposed larvae: 0.00094
[2]; 0.1 µM
  mean angular velocity of exposed larvae: 0.434
[2]; 0.2 µM
  mean angular velocity of exposed larvae: 0.554
[2]; 0.4 µM
  mean angular velocity of exposed larvae: 0.283
[2]; 0.5 µM
  mean angular velocity of exposed larvae: 0.124
[2]; 0.6 µM
  mean angular velocity of exposed larvae: 0.0798
[2]; 0.8 µM
  mean angular velocity of exposed larvae: 0.0985
[3]; 0.1 µM
  mean distance moved of exposed larvae: 11.5
[3]; 0.2 µM
  mean distance moved of exposed larvae: 14.8
[3]; 0.4 µM
  mean distance moved of exposed larvae: 7.04
[3]; 0.5 µM
  mean distance moved of exposed larvae: 3.9
[3]; 0.6 µM
  mean distance moved of exposed larvae: 2.89
[3]; 0.8 µM
  mean distance moved of exposed larvae: 3.08
[4]; 0.1 µM
  mean distance moved of exposed larvae: 2.76
[4]; 0.2 µM
  mean distance moved of exposed larvae: 5.62
[4]; 0.4 µM
  mean distance moved of exposed larvae: 2.25
[4]; 0.5 µM
  mean distance moved of exposed larvae: 2.39
[4]; 0.6 µM
  mean distance moved of exposed larvae: 1.04
[4]; 0.8 µM
  mean distance moved of exposed larvae: 0.0237

## CN1C(=O)CN=C(c2ccccc2)c2cc(Cl)ccc21 [Diazepam]
[1]; 1 µM
  mean angular velocity of exposed larvae: 0.379
[1]; 3 µM
  mean angular velocity of exposed larvae: 0.422
[1]; 5 µM
  mean angular velocity of exposed larvae: 0.41
[1]; 8 µM
  mean angular velocity of exposed larvae: 0.389
[1]; 12 µM
  mean angular velocity of exposed larvae: 0.456
[2]; 1 µM
  mean angular velocity of exposed larvae: 1.05
[2]; 3 µM
  mean angular velocity of exposed larvae: 1.06
[2]; 5 µM
  mean angular velocity of exposed larvae: 1.17
[2]; 8 µM
  mean angular velocity of exposed larvae: 0.786
[2]; 12 µM
  mean angular velocity of exposed larvae: 0.733
[3]; 1 µM
  mean distance moved of exposed larvae: 22.5
[3]; 3 µM
  mean distance moved of exposed larvae: 22.7
[3]; 5 µM
  mean distance moved of exposed larvae: 21.5
[3]; 8 µM
  mean distance moved of exposed larvae: 17.3
[3]; 12 µM
  mean distance moved of exposed larvae: 17
[4]; 1 µM
  mean distance moved of exposed larvae: 10.9
[4]; 3 µM
  mean distance moved of exposed larvae: 7.88
[4]; 5 µM
  mean distance moved of exposed larvae: 7.53
[4]; 8 µM
  mean distance moved of exposed larvae: 10
[4]; 12 µM
  mean distance moved of exposed larvae: 11

## c1ccc2c(c1)c1cccc3c4ccccc4c4cccc2c4c13 [Dibenzo[e-l]pyrene]
[1]; 0.01 µM
  mean angular velocity of exposed larvae: 0.217
[1]; 0.025 µM
  mean angular velocity of exposed larvae: 0.129
[1]; 0.065 µM
  mean angular velocity of exposed larvae: 0.194
[1]; 0.164 µM
  mean angular velocity of exposed larvae: 0.187
[1]; 0.35 µM
  mean angular velocity of exposed larvae: 0.147
[1]; 0.75 µM
  mean angular velocity of exposed larvae: 0.138
[1]; 1 µM
  mean angular velocity of exposed larvae: 0.119
[1]; 2.54 µM
  mean angular velocity of exposed larvae: 0.113
[1]; 6.45 µM
  mean angular velocity of exposed larvae: 0.0734
[1]; 16.4 µM
  mean angular velocity of exposed larvae: 0.0678
[1]; 35 µM
  mean angular velocity of exposed larvae: 0.0716
[1]; 74.8 µM
  mean angular velocity of exposed larvae: 0.0555
[1]; 100 µM
  mean angular velocity of exposed larvae: 0.0996
[2]; 0.01 µM
  mean angular velocity of exposed larvae: 0.665
[2]; 0.025 µM
  mean angular velocity of exposed larvae: 0.598
[2]; 0.065 µM
  mean angular velocity of exposed larvae: 0.644
[2]; 0.164 µM
  mean angular velocity of exposed larvae: 0.681
[2]; 0.35 µM
  mean angular velocity of exposed larvae: 0.693
[2]; 0.75 µM
  mean angular velocity of exposed larvae: 0.704
[2]; 1 µM
  mean angular velocity of exposed larvae: 0.415
[2]; 2.54 µM
  mean angular velocity of exposed larvae: 0.428
[2]; 6.45 µM
  mean angular velocity of exposed larvae: 0.349
[2]; 16.4 µM
  mean angular velocity of exposed larvae: 0.245
[2]; 35 µM
  mean angular velocity of exposed larvae: 0.503
[2]; 74.8 µM
  mean angular velocity of exposed larvae: 0.384
[2]; 100 µM
  mean angular velocity of exposed larvae: 0.353
[3]; 0.01 µM
  mean distance moved of exposed larvae: 23.6
[3]; 0.025 µM
  mean distance moved of exposed larvae: 22.4
[3]; 0.065 µM
  mean distance moved of exposed larvae: 24.7
[3]; 0.164 µM
  mean distance moved of exposed larvae: 22.8
[3]; 0.35 µM
  mean distance moved of exposed larvae: 25.3
[3]; 0.75 µM
  mean distance moved of exposed larvae: 26.3
[3]; 1 µM
  mean distance moved of exposed larvae: 13.5
[3]; 2.54 µM
  mean distance moved of exposed larvae: 10.8
[3]; 6.45 µM
  mean distance moved of exposed larvae: 9.33
[3]; 16.4 µM
  mean distance moved of exposed larvae: 8.16
[3]; 35 µM
  mean distance moved of exposed larvae: 12
[3]; 74.8 µM
  mean distance moved of exposed larvae: 9.85
[3]; 100 µM
  mean distance moved of exposed larvae: 9.64
[4]; 0.01 µM
  mean distance moved of exposed larvae: 7.75
[4]; 0.025 µM
  mean distance moved of exposed larvae: 6.96
[4]; 0.065 µM
  mean distance moved of exposed larvae: 6.48
[4]; 0.164 µM
  mean distance moved of exposed larvae: 8.06
[4]; 0.35 µM
  mean distance moved of exposed larvae: 7.37
[4]; 0.75 µM
  mean distance moved of exposed larvae: 6.8
[4]; 1 µM
  mean distance moved of exposed larvae: 4.47
[4]; 2.54 µM
  mean distance moved of exposed larvae: 2.56
[4]; 6.45 µM
  mean distance moved of exposed larvae: 1.7
[4]; 16.4 µM
  mean distance moved of exposed larvae: 1.99
[4]; 35 µM
  mean distance moved of exposed larvae: 1.66
[4]; 74.8 µM
  mean distance moved of exposed larvae: 1.63
[4]; 100 µM
  mean distance moved of exposed larvae: 3.03

## CCN(CC(=O)O)S(=O)(=O)C(F)(F)C(F)(F)C(F)(F)C(F)(F)C(F)(F)C(F)(F)C(F)(F)C(F)(F)F [N-ethylperfluoro-1-octanesulfonamidoacetic acid]
[1]; 0.25 µM
  mean angular velocity of exposed larvae: 0.0592
[2]; 0.25 µM
  mean angular velocity of exposed larvae: 0.335
[3]; 0.25 µM
  mean distance moved of exposed larvae: 8.83
[4]; 0.25 µM
  mean distance moved of exposed larvae: 1.44

## CN(CC(=O)O)S(=O)(=O)C(F)(F)C(F)(F)C(F)(F)C(F)(F)C(F)(F)C(F)(F)C(F)(F)C(F)(F)F [N-methylperfluoro-1-octanesulfonamidoacetic acid]
[1]; 0.25 µM
  mean angular velocity of exposed larvae: 0.0567
[2]; 0.25 µM
  mean angular velocity of exposed larvae: 0.256
[3]; 0.25 µM
  mean distance moved of exposed larvae: 6.38
[4]; 0.25 µM
  mean distance moved of exposed larvae: 1.43

## NC(=O)C(F)(F)C(F)(F)C(F)(F)C(F)(F)F [Nonafluoropentanamide]
[1]; 0.015 µM
  mean angular velocity of exposed larvae: 0.107
[1]; 0.046 µM
  mean angular velocity of exposed larvae: 0.153
[1]; 0.14 µM
  mean angular velocity of exposed larvae: 0.163
[1]; 0.41 µM
  mean angular velocity of exposed larvae: 0.0614
[1]; 1.23 µM
  mean angular velocity of exposed larvae: 0.124
[1]; 3.7 µM
  mean angular velocity of exposed larvae: 0.0715
[1]; 11.1 µM
  mean angular velocity of exposed larvae: 0.078
[1]; 33.3 µM
  mean angular velocity of exposed larvae: 0.103
[1]; 66.5 µM
  mean angular velocity of exposed larvae: 0.0723
[1]; 100 µM
  mean angular velocity of exposed larvae: 0.107
[2]; 0.015 µM
  mean angular velocity of exposed larvae: 0.911
[2]; 0.046 µM
  mean angular velocity of exposed larvae: 1.03
[2]; 0.14 µM
  mean angular velocity of exposed larvae: 0.788
[2]; 0.41 µM
  mean angular velocity of exposed larvae: 0.731
[2]; 1.23 µM
  mean angular velocity of exposed larvae: 0.649
[2]; 3.7 µM
  mean angular velocity of exposed larvae: 0.476
[2]; 11.1 µM
  mean angular velocity of exposed larvae: 0.903
[2]; 33.3 µM
  mean angular velocity of exposed larvae: 0.989
[2]; 66.5 µM
  mean angular velocity of exposed larvae: 0.804
[2]; 100 µM
  mean angular velocity of exposed larvae: 0.714
[3]; 0.015 µM
  mean distance moved of exposed larvae: 25.4
[3]; 0.046 µM
  mean distance moved of exposed larvae: 26.1
[3]; 0.14 µM
  mean distance moved of exposed larvae: 19.4
[3]; 0.41 µM
  mean distance moved of exposed larvae: 25.8
[3]; 1.23 µM
  mean distance moved of exposed larvae: 17.3
[3]; 3.7 µM
  mean distance moved of exposed larvae: 12.1
[3]; 11.1 µM
  mean distance moved of exposed larvae: 23.9
[3]; 33.3 µM
  mean distance moved of exposed larvae: 26.5
[3]; 66.5 µM
  mean distance moved of exposed larvae: 18.1
[3]; 100 µM
  mean distance moved of exposed larvae: 19.5
[4]; 0.015 µM
  mean distance moved of exposed larvae: 2.24
[4]; 0.046 µM
  mean distance moved of exposed larvae: 4.1
[4]; 0.14 µM
  mean distance moved of exposed larvae: 3.32
[4]; 0.41 µM
  mean distance moved of exposed larvae: 2.83
[4]; 1.23 µM
  mean distance moved of exposed larvae: 1.91
[4]; 3.7 µM
  mean distance moved of exposed larvae: 2.44
[4]; 11.1 µM
  mean distance moved of exposed larvae: 3.86
[4]; 33.3 µM
  mean distance moved of exposed larvae: 2.5
[4]; 66.5 µM
  mean distance moved of exposed larvae: 2.36
[4]; 100 µM
  mean distance moved of exposed larvae: 2.76

## O=C(O)C(F)(F)C(F)(F)C(F)(F)C(F)(F)C(F)(F)C(F)(F)C(F)(F)C(F)(F)C(F)(F)C(F)(F)C(F)(F)C(F)(F)C(F)(F)C(F)(F)C(F)(F)F [Perfluoro-n-hexadecanoic acid]
[1]; 0.25 µM
  mean angular velocity of exposed larvae: 0.178
[2]; 0.25 µM
  mean angular velocity of exposed larvae: 0.833
[3]; 0.25 µM
  mean distance moved of exposed larvae: 27.2
[4]; 0.25 µM
  mean distance moved of exposed larvae: 6.65

Source: the supplement of paper PMC11414989
